Test results taken from EP4509497A1, “METHOD FOR PRODUCING ACETYLSALICYLIC ACID NICOTINAMIDE COCRYSTALS AND ACETYLSALICYLIC ACID NICOTINAMIDE COCRYSTALS WITH IMPROVED SOLUBILITY” (Ruhr-Universität Bochum, priority 2023, dated 2025).
Converted amounts (≈) assume the structure as drawn.

Assay: Solubility determination (gravimetric, saturated aqueous samples)
Type: physicochemical
Protocol: Es wurden 15 mL gesättigter wässriger Proben mit Niederschlag in 20 mL-Fläschchen mit dem Acetylsalicylsäure-Nicotinsäureamid-Co-Kristall (1:1), ASS und NIC angesetzt. Die Proben wurden bei Raumtemperatur mit einem Magnetrührer homogenisiert. Nach 1 h und 2 h werden von jeder Probe 4-mal ca. 1 mL Lösung entnommen (4-fach Bestimmung) und durch ein Vorspritzfilter in ein leeres 4 mL Fläschchen überführt. Die Fläschchen werden dann bis zur Verdampfung des Lösemittels offen stehengelassen. Die Fläschchen wurden leer, mit der gesättigten Lösung und nach dem Verdampfen gewogen. Die Löslichkeit in Masseprozent ergibt sich über die Differenz aus Gewicht nach dem Verdampfen und dem Leegewicht.

Compound	ASS-Löslichkeit gesteigert um einen Faktor (ASS in co-crystal (ASS:NA 1:1) versus pure ASS, Fig. 7, after 1 h)	Löslichkeit Nach 1 h (water, 1 h)	Löslichkeit Nach 1 h (ASS im Co-Kristall) (water, 1 h)	Löslichkeit Nach 2 h (water, 2 h)	Löslichkeit Nach 2 h (ASS im Co-Kristall) (water, 2 h)	solubility thermodynamic at 1 h (water) [µg/mL]	solubility thermodynamic at 2 h (water) [µg/mL]
Acetylsalicylsäure-Nicotinsäureamid-Co-Kristall	ca. 2,5	1,768 ω %	1,054 ω %	1,777 ω %	1,059 ω %		
CC(=O)Oc1ccccc1C(=O)O [Acetylsalicylsäure, 2-Acetoxybenzoesäure, reference compound]						4140 (≈ 23 mM)	4260 (≈ 23.6 mM)
